Test results published in ChEMBL document CHEMBL1135798, “Structure-activity relationships of the antimalarial agent artemisinin. 6. The development of predictive in vitro potency models using CoMFA and HQSAR methodologies” (2002).

The compounds below were run on Plasmodium falciparum (assay: Antimalarial activity against chloroquine-resistant, mefloquine-sensitive Plasmodium falciparum W2).
Assay type: functional

| Structure (SMILES) | Log RA |
| --- | --- |
| CCCC[C@H]1C(=O)OC2OC(C)(C)OO[C@@]23CCCCC13 (stereo partly specified) | -1.13 |
| CCC(=O)OCC(CC)(CC)OOC(C)(C)C | -4 |
| CO[C@H]1OC2(C)CC[C@H]3CCC[C@@H](CCOCc4ccc(F)cc4)C31OO2 (stereo partly specified) | 0.38 |
| CCC[C@@H](Cc1ccccc1)OC1O[C@@H]2O[C@@]3(C)CC[C@H]4[C@H](C)CC[C@@H]([C@H]1C)[C@@]24OO3 (stereo partly specified) | 0.31 |
| C[C@@H]1CC[C@H]2CC(=O)O[C@@H]3O[C@@]4(C)CC[C@@H]1[C@@]23OO4 | 0.79 |
| CC(C)CCC[C@H]1C(=O)O[C@@H]2O[C@@]3(C)CC[C@H]4[C@H](C)CC[C@@H]1[C@@]24OO3 | -0.04 |
| C[C@@H]1CC[C@H]2[C@@H](CCCc3ccc(Cl)cc3)C(=O)O[C@@H]3O[C@@]4(C)CC[C@@H]1[C@]32OO4 | 1.37 |
| CCC[C@H]1CO[C@@H]2O[C@@]3(C)CC[C@H]4[C@H](C)CC[C@@H]1[C@@]24OO3 | 0.74 |
| CCCC[C@H]1C(O)O[C@@H]2O[C@@]3(C)CC[C@H]4[C@H](C)CC[C@@H]1[C@@]24OO3 (stereo partly specified) | 0.96 |
| CO[C@H]1O[C@@]2(C)CC[C@H]3CCC[C@@H](CCOCc4ccccn4)[C@]31OO2 | 0.17 |
| CCOC1O[C@@H]2O[C@@]3(C)CC[C@H]4[C@H](C)CC[C@@H]([C@H]1C)[C@@]24OO3 (stereo partly specified) | 0.34 |
| C[C@@H]1CC[C@H]2[C@H](C)C(=O)O[C@@H]3O[C@@]4(C)CC[C@@H]1[C@]32OO4 | -0.17 |
| CC1O[C@@H]2O[C@@]3(C)CC[C@H]4[C@H](C)CC[C@@H]1[C@@]24OO3 (stereo partly specified) | -0.64 |
| CC1CO[C@@H]2O[C@@]3(C)CC[C@H]4[C@H](C)CC[C@@H]1[C@@]24OO3 (stereo partly specified) | -0.79 |
| CO[C@H]1O[C@]2(C)OO[C@]13[C@H](CCO)CCC[C@@H]3C[C@@H]2C | 0.23 |
| C[C@@H]1CCC2[C@@H](C)COC3OC4(CCCC4)OO[C@@]32C1 (stereo partly specified) | -0.26 |
| C[C@@H]1CCC2[C@@H](C)COC3OC(C)(C)OO[C@@]32C1 (stereo partly specified) | -0.8 |
| CO[C@@]1(C)CC[C@H]2[C@H](C)CCC[C@]2(C=O)OO1 | -4 |
| c1ccc([C@@]23CCC[C@](c4ccccc4)(CC2)OO3)cc1 | -0.91 |
| C[C@H]1C(=O)OC2OC(C)(C)OO[C@@]23CCCCC13 (stereo partly specified) | -1.27 |
| C[C@H]1[C@@H](O[C@@H](CC(=O)O)c2ccc([N+](=O)[O-])cc2)O[C@@H]2O[C@@]3(C)CC[C@H]4[C@H](C)CC[C@@H]1[C@@]24OO3 | 0.1 |
| C[C@H]1[C@@H](O[C@@H](C)c2ccc(C(F)(F)F)cc2)O[C@@H]2O[C@@]3(C)CC[C@H]4[C@H](C)CC[C@@H]1[C@@]24OO3 | 0.15 |

| Structure (SMILES) | Log RA |
| --- | --- |
| C[C@@H]1CC[C@H]2[C@@H](CCc3ccccc3)C(=O)O[C@@H]3O[C@@]4(C)CC[C@@H]1[C@]32O4 | -4 |
| CCO[C@H]1O[C@@H]2O[C@@]3(C)CC[C@H]4C(C)C(F)(F)C[C@@H]([C@H]1C)[C@@]24OO3 (stereo partly specified) | 0.19 |
| CCO[C@H]1O[C@@H]2O[C@@]3(C)CC[C@H]4C(C(F)F)CC[C@@H]([C@H]1C)[C@@]24OO3 (stereo partly specified) | 0.41 |
| C[C@@H]1CC[C@H]2[C@@H](CCCc3ccccc3)C(=O)O[C@@H]3O[C@@]4(C)CC[C@@H]1[C@]32O4 | -4 |
| C[C@@H]1CC[C@H]2C(=O)C(=O)O[C@@H]3O[C@@]4(C)CC[C@@H]1[C@]32OO4 | -2.47 |
| CC(C)C[C@H]1C(=O)O[C@@H]2O[C@@]3(C)CC[C@H]4[C@H](C)CC[C@@H]1[C@@]24OO3 | -0.55 |
| CO[C@H]1O[C@@]2(C)CC[C@H]3CCC[C@@H](CCOC(=O)CNC(=O)OC(C)(C)C)[C@]31OO2 | -0.04 |
| C[C@@H]1CC[C@@H]2[C@]34OO[C@](C)(CC[C@@H]13)O[C@H]4OC(Nc1ncccn1)[C@@]2(C)Br (stereo partly specified) | -0.77 |
| C[C@@H]1CC[C@@H]2[C@]34OO[C@](C)(CC[C@@H]13)O[C@H]4OC(Nc1cccc(F)c1)[C@@]2(C)Br (stereo partly specified) | 0.79 |
| CO[C@H]1O[C@@]2(C)CC[C@H]3CCC[C@@H](CCOC(=O)c4ccc(C(=O)OCCN(C)C)cc4)[C@]31OO2 | -0.6 |
| CO[C@H]1O[C@@]2(C)CC[C@H]3CCC[C@@H](CCOC(=O)c4ccccc4)[C@]31OO2 | -0.59 |
| CO[C@@H]1O[C@@]2(C)CC[C@H]3CCC[C@@H](CCOC(=O)N(c4ccccc4)c4ccccc4)[C@]31OO2 | 1.06 |
| CO[C@H]1O[C@@]2(C)CC[C@H]3CCC[C@@H](CCOS(=O)(=O)c4ccc(C)cc4)[C@]31OO2 | 0.2 |
| C[C@@H]1CC[C@@H]2[C@]34OO[C@](C)(CC[C@@H]13)O[C@H]4OC(OCC(F)(F)F)[C@@]2(C)O (stereo partly specified) | 0.29 |
| CCOP(=O)(OCC)OCC[C@@H]1CCC[C@@H]2CC[C@@]3(C)OO[C@]21[C@@H](OC)O3 | 0.37 |
| COC(=O)CCOC1O[C@@H]2O[C@@]3(C)CC[C@H]4[C@H](C)CC[C@@H]([C@H]1C)[C@@]24OO3 (stereo partly specified) | 0.1 |
| C[C@@H]1CCC[C@]23OO[C@](C)(CC[C@@H]12)O[C@H]3OC(=O)Cc1ccccc1 | -0.51 |
| C[C@@H]1CC[C@H]2[C@H]3CCCO[C@H]3O[C@@H]3O[C@@]4(C)CC[C@@H]1[C@]32OO4 | 0.23 |
| C[C@@H]1CC[C@@H]2[C@]34OO[C@](C)(CC[C@@H]13)O[C@H]4OC(=O)[C@@]2(O)CO | -4 |
| C[C@@H]1CC[C@@H]2[C@]34OO[C@](C)(CC[C@@H]13)O[C@H]4OC(=O)[C@@]2(Br)CBr | -1.64 |
| C[C@@H]1CC[C@H]2[C@@H](C)C(=O)N(CC=O)[C@@H]3O[C@@]4(C)CC[C@@H]1[C@@]23OO4 | 1.47 |
| C/C=C\C[C@@H]1C(=O)O[C@@H]2O[C@@]3(C)CC[C@H]4[C@H](C)CC[C@@H]1[C@@]24OO3 | -1.1 |

| Structure (SMILES) | Log RA |
| --- | --- |
| C[C@@H]1CC[C@H]2CC(=O)N(CCCc3ccccc3)[C@@H]3O[C@@]4(C)CC[C@@H]1[C@@]23OO4 | 0.02 |
| CCCCC1O[C@@H]2O[C@@]3(C)CC[C@H]4[C@H](C)CC[C@@H]([C@H]1C)[C@@]24OO3 (stereo partly specified) | 0.06 |
| C[C@@H]1CC[C@@H]2[C@]34OO[C@](C)(CC[C@@H]13)O[C@H]4OC(OCC(F)(F)F)[C@]2(C)O (stereo partly specified) | -0.7 |
| CC(C)CN1C(=O)[C@H](C)[C@@H]2CC[C@@H](C)[C@@H]3CC[C@@]4(C)OO[C@]32[C@H]1O4 | 1.03 |
| COC(=O)C[C@H](C)OC1O[C@@H]2O[C@@]3(C)CC[C@H]4[C@H](C)CC[C@@H]([C@H]1C)[C@@]24OO3 (stereo partly specified) | 0.87 |
| C/C=C1\C(=O)O[C@@H]2O[C@@]3(C)CC[C@H]4[C@H](C)CC[C@@H]1[C@@]24OO3 | -0.36 |
| CCCC[C@H]1CO[C@@H]2O[C@@]3(C)CC[C@H]4[C@H](C)CC[C@@H]1[C@@]24O3 | -4 |
| CCOC(=O)C[C@@H](O[C@H]1O[C@@H]2O[C@@]3(C)CC[C@H]4[C@H](C)CC[C@@H]([C@H]1C)[C@@]24OO3)c1ccc([N+](=O)[O-])cc1 | 0.9 |
| CC(=O)Oc1ccc([C@H](C)O[C@H]2O[C@@H]3O[C@@]4(C)CC[C@H]5[C@H](C)CC[C@@H]([C@H]2C)[C@@]35OO4)cc1 | 0.68 |
| CCOC(=O)C[C@H](O[C@H]1O[C@@H]2O[C@@]3(C)CC[C@H]4[C@H](C)CC[C@@H]([C@H]1C)[C@@]24OO3)c1ccc([N+](=O)[O-])cc1 | 1.57 |
| CCOC(=O)C[C@@H](O[C@H]1O[C@@H]2O[C@@]3(C)CC[C@H]4[C@H](C)CC[C@@H]([C@H]1C)[C@@]24OO3)c1ccccc1 | 1.07 |
| C[C@@H]1CC[C@H]2CCO[C@@H]3O[C@@]4(CCCc5ccc(Cl)cc5)CC[C@@H]1[C@@]23OO4 | -0.55 |
| C[C@@H]1CC[C@H]2[C@@H](CCCc3ccccc3)CO[C@@H]3O[C@@]4(C)CC[C@@H]1[C@]32OO4 | 1.4 |
| CC[C@H]1CO[C@@H]2O[C@@]3(C)CC[C@H]4[C@H](C)CC[C@@H]1[C@@]24OO3 | 0.67 |
| C[C@]12CC[C@H]3CCCC[C@@]3(OO1)[C@H](OCc1ccccc1)O2 | -0.09 |
| CC[C@@]12CC[C@H]3[C@H](C)CC[C@H]4CCO[C@H](O1)[C@]43OO2 | -1 |
| CCO[C@H]1O[C@@H]2O[C@@]3(C)CC[C@H]4[C@H](C)CC[C@@H]([C@H]1C)[C@@]24O3 | -4 |
| CO[C@H]1O[C@@]2(C)CC[C@H]3CCC[C@@H](CCOCc4ccncc4)[C@]31OO2 | 0.14 |
| C[C@@H]1CC[C@H]2[C@@H](C)C(=O)O[C@@H]3O[C@@]4(C)CC[C@@H]1[C@]32OO4 [ARTEMISININ] | 0 |
| C=C1C(=O)O[C@@H]2O[C@@]3(C)CC[C@H]4[C@H](C)CC[C@@H]1[C@@]24OO3 [ARTEMISITENE] | -0.89 |
| C[C@H]1[C@@H](O)O[C@@H]2O[C@@]3(C)CC[C@H]4[C@H](C)CC[C@@H]1[C@@]24OO3 [ARTENIMOL] | 0.55 |
| C[C@@H]1CC[C@H]2[C@@H](C)C(=O)O[C@@H]3O[C@@]4(C)CC[C@@H]1[C@]32O4 [DEOXYARTEMISININ] | -4 |
